Series [1] concerns experimental liver damage. Put plainly: hexobarbitone sleep test (experimental liver damage by carbon tetrachloride). The format is in vivo. The note with it: rats. The method, then: A standard testing process for pharmacological effect for experimental liver damage is the hexobarbitone sleep test, whose execution is described among others in a work by G. Vogel et al. in the Arzneimittelforschung, volume 25 (1975), pp. 82-89 and pp. 179-188. For this purpose 100 mg/kg of the compound to be tested were given to rats in groups each of 15 animals in carboxymethyl cellulose intraperitoneally and 90 minutes later 0.3 ml/kg carbon tetrachloride in olive oil by means of a throat probe. The rats were anaesthetised 48 hours later by intraperitoneal dosing of 70 mg/kg of hexabarbitone and the sleep duration was determined: […]

Series [2] relates to mice. Put plainly: α amanitine test (mortality). The format is in vivo. The note with it: 20 per group, 50 mg/kg i.v., 0.7 mg/kg α amanitine i.p. 1 h later, observed 7 days. The method, then: (§1) These tests have been described in the already-quoted work by G. Vogel et al. published in Arzneimittelforschung, volume 25 (1975), pages 82 to 89 and 179 to 188.
In the α amanitine test the mice received in groups of 20 animals each 50 mg/kg of N-(5-(trans-2,3-dihydro-7-methoxy-3-methyl-5-(E)-propenylbenzofuran-2-yl)-2--hydroxy-3-methoxyphenyl-methyl)-N) (2-hydroxyethyl)-N-methyl ammonium chloride and for comparison Silymarine intravenously and an hour later 0.7 mg/kg of α amanitine intraperitoneally.

The nature of series [3]: toxicologic investigations (LD50). The note with it: rat, in vivo, po; rats, peroral application. The source says:
The toxicologic investigations indicate a good compatibility of the compounds produced by the process according to the invention.

Series [4] concerns serum enzymes GOT and GPT. Put plainly: galactosamine test (liver protection, serum enzymes GOT and GPT). In kind it is in vivo. As to conditions: rats. As for the experimental part: as §1
In the galactosamine tests the rats received in groups each of 15 animals 100 mg/kg of the compound to be tested N-(5-(trans-2,3-dihydro-7-methoxy-3-methyl-5-(E)-propenylbenzofuran-2-yl)- 2-hydroxy-3-methoxy-phenylmethyl)-N-(2-hydroxyethyl)-N-methyl-ammonium chloride and for comparison purposes Silymarine in the tragacanth suspension perorally, one hour later interperitoneally 350 mg/kg of galactosamine hydrochloride and 24 hours later blood samples were taken for determining the serum enzymes GOT and GPT.

The mark [5] stands for this setting: 100 mg/kg perorally, enzyme GPT.
Setting [6] is: 15 per group, 100 mg/kg perorally in tragacanth suspension, 350 mg/kg galactosamine hydrochloride i.p. 1 h later, blood samples 24 h later.

Take `C/C=C/c1cc(OC)c2c(c1)[C@@H](C)[C@H](c1ccc(O)c(OC)c1)O2` (relative stereo) [dehydrodiisoeugenol, trans-2,3-dihydro-2-(4-hydroxy-3-methoxyphenyl)-7-methoxy-3-methyl-5-(E)-propenylbenzofurane]: the “statistical significance of the effect (sleep duration)” value in series [1] (100 mg/kg i.p., carbon tetrachloride) is on record as “highly significant”. The compound also displayed a sleep duration in series [1] (15 per group, 100 mg/kg i.p. in carboxymethyl cellulose, 0.3 ml/kg carbon tetrachloride 90 min later, 70 mg/kg hexobarbitone i.p. after 48 h) of 97 min.
In turn, `C/C=C/c1cc(OC)c2c(c1)[C@@H](C)[C@H](c1cc(CN(C)CCO)c(O)c(OC)c1)O2.Cl` (relative stereo) [N-(5-(trans-2,3-dihydro-7-methoxy-3-methyl-5-(E)-propenylbenzofuran-2-yl)-2-hydroxy-3-methoxy-phenylmethyl)-N-(2-hydroxyethyl)-N-methyl-ammonium chloride] came in with a mortality rate in series [2] of 20%. The compound also registered an LD50 in series [3] of 4000 to 16000 mg/kg. In series [4] (setting [5]), the “effect on GPT compared with Silymarine” value is “clearly better than that of Silymarine” and the “statistical significance of the effect on GPT” value is given as “highly significant”. In series [4] (setting [6]), this compound returned a GOT of 422 and a GPT of 185.

The values above are taken from patent US4256764A, “Process for making derivatives of dimers of isoeugenol” (PLC Pharmaceutical Licenses Co. Ltd., priority 1978, dated 1981).
